Values quoted from earlier work as cited in US20080234132A1, “Microcin B17 Analogs And Methods For Their Preparation And Use” (priority 2004, published 2008).

Experiments:
Conditions in all cases: Flatman et al., 2004; cited from earlier work
[1] = molecular target: T1, E. coli DNA gyrase A2B2, wild type (Escherichia coli, UniProt P0AES4+P0AES6)
[2] = molecular target: T2, E. coli DNA gyrase A2B2, MG1655 wild type (Escherichia coli, UniProt P0AES4+P0AES6)
[3] = molecular target: T1, E. coli DNA gyrase A2B2, wild type; remark: listed apart in the source
[4] = molecular target: T2, E. coli DNA gyrase A2B2, MG1655 wild type; remark: listed apart in the source

T1 sequence (P0AES4 whole entry, one chain of several): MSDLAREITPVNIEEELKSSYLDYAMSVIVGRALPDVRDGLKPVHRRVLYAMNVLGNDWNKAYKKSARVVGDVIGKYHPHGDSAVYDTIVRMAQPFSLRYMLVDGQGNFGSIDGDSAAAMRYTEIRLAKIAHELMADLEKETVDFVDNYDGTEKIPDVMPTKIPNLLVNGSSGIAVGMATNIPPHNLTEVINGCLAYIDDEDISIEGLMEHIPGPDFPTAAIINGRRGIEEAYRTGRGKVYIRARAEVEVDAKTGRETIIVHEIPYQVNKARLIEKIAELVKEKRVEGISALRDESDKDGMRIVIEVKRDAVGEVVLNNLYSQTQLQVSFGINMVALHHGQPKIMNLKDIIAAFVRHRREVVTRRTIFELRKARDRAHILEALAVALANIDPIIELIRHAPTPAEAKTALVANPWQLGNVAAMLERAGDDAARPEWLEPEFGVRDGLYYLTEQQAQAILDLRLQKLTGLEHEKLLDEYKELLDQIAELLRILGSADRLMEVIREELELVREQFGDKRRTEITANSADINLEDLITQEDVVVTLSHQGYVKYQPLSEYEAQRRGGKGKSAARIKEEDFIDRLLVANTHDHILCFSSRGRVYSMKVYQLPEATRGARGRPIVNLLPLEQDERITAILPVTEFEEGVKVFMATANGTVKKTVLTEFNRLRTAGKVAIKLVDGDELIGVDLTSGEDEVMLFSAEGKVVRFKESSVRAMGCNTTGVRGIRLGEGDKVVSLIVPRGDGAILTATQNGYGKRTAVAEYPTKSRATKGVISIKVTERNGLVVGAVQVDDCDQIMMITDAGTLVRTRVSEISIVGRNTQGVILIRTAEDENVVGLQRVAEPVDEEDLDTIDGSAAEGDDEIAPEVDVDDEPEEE
T2 sequence (P0AES4 whole entry, one chain of several): as above

CC(=O)O[C@@H]1[C@@H](C)O[C@@H](c2ccc3c(c2O)[C@@H](O)[C@]24O[C@@]2(C3=O)[C@@]2(O)C(=O)C=C(C)C[C@@]2(O)C[C@@H]4O)C[C@H]1OC(=O)/C=C/C=C/C=C/C=C/C(=O)Nc1c(O)c2ccc(O)c(Cl)c2oc1=O [simocyclinone D8]
Inhibition of relaxation reaction [1]: inhibits the supercoiling and relaxation reactions
Inhibition of ATPase reaction [2]: not the ATPase reaction
Cleavage complex formation / quinolone cleavage [3]: does not stimulate the gyrase-dependent cleavage complex formation but antagonizes quinolone cleavage
Inhibition of supercoiling reaction [4]: inhibits the supercoiling and relaxation reactions
